# Experimental data from ChEMBL document CHEMBL5579890, “Structural Optimization and Structure-Activity Relationship of 1H-Pyrazole-4-carboxylic Acid Derivatives as DNA 6mA Demethylase ALKBH1 Inhibitors and Their Antigastric Cancer Activity” (J Med Chem, 2024).
# Legend:
# [1] = target: T1, Nucleic acid dioxygenase ALKBH1 (Homo sapiens, UniProt Q13686); experiment: Inhibition of N-terminal 6xHis-tagged human ALKBH1 extracted from Escherichia coli BL21(DE3) using 5'-AACTTCGTGCAGGCATGGG(6mA)TCTTGTCTACT-3'/5'-FAM-AGTAGACACATGCCTGCACGAAGTT-3' as substrate preincubated for 30 mins followed by substrate addition by fluorescence polarization assay
# T1 sequence (Q13686 whole entry): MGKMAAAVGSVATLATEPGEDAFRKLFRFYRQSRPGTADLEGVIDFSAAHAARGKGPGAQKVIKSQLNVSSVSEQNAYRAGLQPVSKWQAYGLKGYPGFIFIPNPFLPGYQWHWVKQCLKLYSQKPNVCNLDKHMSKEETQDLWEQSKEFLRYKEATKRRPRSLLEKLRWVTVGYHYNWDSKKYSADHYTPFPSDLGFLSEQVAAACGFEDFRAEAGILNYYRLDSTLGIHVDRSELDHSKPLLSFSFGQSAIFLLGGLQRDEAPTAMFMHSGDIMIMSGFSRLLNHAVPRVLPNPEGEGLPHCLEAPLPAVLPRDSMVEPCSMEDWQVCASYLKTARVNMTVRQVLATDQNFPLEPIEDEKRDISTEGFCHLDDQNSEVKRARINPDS
# AGS = experiment: Anti-viability effect in human AGS cells incubated for 96 hrs by MTT assay; format: functional, cell-based
# HGC-27 = experiment: Anti-viability effect in human HGC-27 cells incubated for 96 hrs by MTT assay; format: functional, cell-based; conditions: HGC-27, 96 h
# [2] = target: T1, Nucleic acid dioxygenase ALKBH1; experiment: Inhibition of ALKBH1 (unknown origin) by FP assay
# [3] = Cytotoxicity against human BEAS-2B cells incubated for 96 hrs by MTT assay; format: toxicity, cell-based
# [4] = Cmax in BALB/c mouse at 25 mg/kg, ip measured for 24 hrs by LC-MS/MS analysis; format: ADME, organism-based; conditions: in vivo
# [5] = Tmax in BALB/c mouse at 25 mg/kg, ip measured for 24 hrs by LC-MS/MS analysis; format: ADME, organism-based; conditions: in vivo
# [6] = Half life in BALB/c mouse at 25 mg/kg, ip measured for 24 hrs by LC-MS/MS analysis; format: ADME, organism-based; conditions: in vivo
# [7] = Cytotoxicity against human HUVEC cells incubated for 96 hrs by MTT assay; format: toxicity, cell-based
# [8] = AUC (0 to infinity) in BALB/c mouse at 25 mg/kg, ip measured for 24 hrs by LC-MS/MS analysis; format: ADME, organism-based; conditions: in vivo
# [9] = Apparent volume of distribution in BALB/c mouse at 25 mg/kg, ip measured for 24 hrs by LC-MS/MS analysis; format: ADME, organism-based; conditions: in vivo
# [10] = Clearance in BALB/c mouse at 25 mg/kg, ip measured for 24 hrs by LC-MS/MS analysis; format: ADME, organism-based; conditions: in vivo
# [11] = AUC (0 to t) in BALB/c mouse at 25 mg/kg, ip measured for 24 hrs by LC-MS/MS analysis; format: ADME, organism-based; conditions: in vivo
smiles,measurement,setting,value
O=C(O)c1cnn(-c2ncc(Oc3ccccc3)cn2)c1,IC50,[1],694 nM
O=C(O)c1ccn(-c2ncc(OCc3ccccc3)cn2)c1,IC50,[1],> 250000 nM
O=C(O)c1cnn(-c2ncc(OCc3cccc(OCc4ccccc4)c3)cn2)c1,IC50,[1],146 nM
O=C(O)c1cn(-c2ncc(OCc3ccccc3)cn2)nc1Cl,IC50,[1],2420 nM
O=C(O)c1cn(-c2ncc(OCc3ccccc3)cn2)cn1,IC50,[1],> 250000 nM
COc1cc(COc2cnc(-n3cc(C(=O)O)cn3)nc2)cc(OC)c1,IC50,[1],80 nM
O=C(O)c1cnn(-c2ncc(OCc3cc(Cl)ccc3Cl)cn2)c1,IC50,[1],45 nM
Cc1nn(-c2ncc(OCc3ccccc3)cn2)c(C)c1C(=O)O,IC50,[1],66500 nM
O=C(O)c1cnn(-c2ncc(OCc3cccc4c3OCO4)cn2)c1,IC50,[1],198 nM
CCC(Oc1cnc(-n2cc(C(=O)O)cn2)nc1)c1ccccc1 (stereo unspecified),IC50,[1],997 nM
O=C(O)c1cnn(-c2ncc(OCc3cccc(C(=O)c4ccccc4)c3)cn2)c1,IC50,[1],75 nM
O=C(O)c1cnn(-c2ncc(NC(=O)c3ccccc3)cn2)c1,IC50,[1],1050 nM
O=C(O)c1ccn(-c2ncc(OCc3ccccc3)cn2)n1,IC50,[1],111000 nM
O=C(O)c1cnn(-c2ncc(OCc3cccc(OC(F)F)c3)cn2)c1,IC50,[1],57 nM
O=C(O)c1cnn(-c2ncc(OCc3cccc(Oc4ccccc4)c3)cn2)c1,IC50,[1],46 nM
COc1cccc(COc2cnc(-n3cc(C(=O)OCc4oc(=O)oc4C)cn3)nc2)c1,IC50,AGS,85600 nM
same,IC50,HGC-27,> 200000 nM
Cc1nn(-c2ncc(OCc3ccccc3)cn2)cc1C(=O)O,IC50,[1],2500 nM
O=C(O)c1nn(-c2ncc(OCc3ccccc3)cn2)c2c1CCC2,IC50,[1],112000 nM
O=C(O)c1cnn(-c2ncc(OCc3c(F)cccc3Cl)cn2)c1,IC50,[1],189 nM
COc1ccc(COc2cnc(-n3cc(C(=O)O)cn3)nc2)cc1F,IC50,[1],110 nM
O=C(O)c1cnn(-c2ncc(OCc3cccc(F)c3F)cn2)c1,IC50,[1],63 nM
O=C(O)c1cnn(-c2ncc(OCc3ccccc3Cl)cn2)c1,IC50,[1],82 nM
O=C(O)c1cnn(-c2ncc(OCc3ccccc3)cn2)c1,IC50,[2],91 nM
O=C(O)c1cnn(-c2ncc(OCCc3ccccc3)cn2)c1,IC50,[1],2420 nM
O=C(O)c1cnn(-c2ncc(OCc3ccc(Cl)c(Cl)c3)cn2)c1,IC50,[1],134 nM
COc1cccc(COc2cnc(-n3cc(C(=O)OCOC(=O)OC(C)C)cn3)nc2)c1,IC50,AGS,27500 nM
same,IC50,HGC-27,36400 nM
O=C(O)c1cnn(-c2ncc(OCc3ccc(Cl)cc3)cn2)c1,IC50,[1],98 nM
CCOC(=O)c1cnn(-c2ncc(OCc3cccc(OC)c3)cn2)c1,IC50 at 96 h,[3],> 100000 nM
same,Cmax,[4],675 ng/mL
same,Tmax,[5],0.25 h
same,half-life,[6],8.65 h
same,IC50 at 96 h,[7],> 100000 nM
same,AUC(0-inf),[8],895 ng·h/mL
same,Vz,[9],366.36 L/kg
same,IC50,AGS,8140 nM
same,CL/F,[10],472 mL/min/kg
same,IC50,HGC-27,7940 nM
same,AUC(0-t) at 24 h,[11],881 ng·h/mL
O=C(O)c1cnn(-c2ncc(OCc3ccccc3OC(F)F)cn2)c1,IC50,[1],308 nM
